This is an account of results in US20240382475A1, “Quinazoline Derivative, Or Preparation Method Therefor And Use Thereof” (Zhejiang Hisun Pharmaceutical Co., Ltd., priority 2021, published 2024).

A short description of data set [1]: Pharmacokinetic evaluation in ICR mice. In kind it is in vivo. The note with it: male, mouse, plasma, PO 10 mg/kg. The text has this: ICR normal mice were used as test animals, and LC/MS/MS was used to determine the drug concentrations at different moments in plasma of ICR mice by intragastric administration. The pharmacokinetic behavior of the compounds of the present invention in ICR mice was studied to evaluate the pharmacokinetic characteristics of the above compounds.
Compound 4, Compound 26 and Compound 32.
ICR mice, male, 27.8-38 g, were purchased from Zhejiang Vital River Laboratory Animal Technology Co., Ltd.
An appropriate amount of the compound was weighed, and DMA:30% Solutol HS-15:Saline=5:5:90 (v/v/v) was used as the solvent to prepare a fully dissolved solution, and then administered to obtain a 1 mg/mL colorless solution.
The ICR mice in the intragastric group of each compound to be tested (nine mice in each group) were fasted overnight followed by intragastric administration (administration dosage was 10 mg/kg and the administration volume was 10 mL/kg), and ate 4 hours after administration.
0.1 mL of blood was collected via orbit before administration and 0.25 hour, 0.5 hour, 1 hour, 2 hours, 4 hours, 8 hours, 12 hours, and 24 hours after administration, and placed in EDTA-K2 anticoagulant tubes. The collected blood samples were placed on ice, and plasma was separated by centrifugation (centrifugation condition: 1500 g, 10 minutes). The collected plasma samples were stored at −40˜−20° C. before analysis.
LC-MS/MS was used to determine the content of the compound to be tested in mouse plasma after intragastric administration.

Data set [2] in a line: Pharmacokinetic evaluation in SD rats. The class given is in vivo. Particulars: male, rat, plasma; for AUC(0-t): read-out: Area under curve AUC0-t; for half-life: read-out: Half-life T1/2 (converted). As to the method:
SD rats were used as the test animals, and LC/MS/MS was used to determine the drug concentrations at different moments in plasma after compound 11 of the present invention was administered to the rats through intravenous injection or intragastric administration. The pharmacokinetic characteristics of compound 11 of the present invention in SD rats were studied.
SD rats, male, 195-235 g, 6-8 weeks old, were purchased from Vital River Laboratory Animal Technology Co., Ltd.
Intravenous injection group: an appropriate amount of the compound to be tested was weighed, and an appropriate amount of DMA:30% Solutol HS-15:Saline=5:5:90 (v/v/v) was added respectively, vortexed, and a solution with a final concentration of 0.2 mg/mL was prepared.
Intragastric administration group: an appropriate amount of the compound to be tested was weighed, and an appropriate amount of DMA:30% Solutol HS-15:Saline=5:5:90 (v/v/v) was added, vortexed, and a solution with a final concentration of 1 mg/mL was prepared.
The SD rats were divided into intravenous injection group (3 rats/group) and intragastric administration group (3 rats/group) according to the compound to be tested.
Intravenous injection group: rats were fasted overnight and then administered by intravenous injection (administration dosage was 1 mg/kg, and administration volume was 5 mL/kg), and ate 4 hours after administration.
Intragastric administration group: rats were fasted overnight followed by intragastric administration (administration dosage was 10 mg/kg, and administration volume was 10 mL/kg), and ate 4 hours after administration.
Intravenous injection group: about 150 μL of blood was collected through jugular vein into EDTA-K2 anticoagulant tubes 0.083 hour, 0.25 hour, 0.5 hour, 1 hour, 2 hours, 4 hours, 8 hours and 24 hours after administration. The collected blood sample was placed on ice, and plasma was separated by centrifugation (centrifugation condition: 1500 g, 10 minutes). The collected plasma sample was stored at −40˜−20° C. before analysis.
Intragastric administration group: about 100 μL of blood was collected through jugular vein into EDTA-K2 anticoagulant tubes 0.25 hour, 0.5 hour, 1 hour, 2 hours, 4 hours, 8 hours and 24 hours after administration. The collected blood sample was placed on ice, and plasma was separated by centrifugation (centrifugation condition: 1500 g, 10 minutes). The collected plasma sample was stored at −40˜−20° C. before analysis.
LC-MS/MS was used to determine the content of the compound to be tested in rat plasma after intravenous injection and intragastric administration of the compound.

The structures appear in SMILES notation.

For `COc1cc2nc(C)nc(N[C@H](C)c3cccc(C#N)c3C)c2cc1N1CCC2(CCOCC2)CC1` [Compound 4, (R)-3-(1-((7-methoxy-2-methyl-6-(3-oxa-9-azaspiro[5.5]undecan-9-yl)quinazolin-4-yl)amino)ethyl)-2-methylbenzonitrile], in data set [1] (read-out: Area under curve AUC0-t), the AUC(0-t) amounted to 5820 ng·h/mL. The half-life in data set [1] (read-out: Half-life T1/2 (converted)) was 51 min. The Cmax in data set [1] (read-out: Plasma concentration Cmax) was found to be 2310 ng/mL.

Consider `COc1cc2nc(C)nc(N[C@H](C)c3cccc(C#N)c3C)c2cc1N1CCC(C)(O)CC1` [Compound 11, (R)-3-(1-((6-(4-hydroxy-4-methylpiperidin-1-yl)-7-methoxy-2-methylquinazolin-4-yl)amino)ethyl)-2-methylbenzonitrile], for which, in data set [2] (Oral 10 mg/kg vs injection 1 mg/kg, read-out: Bioavailability F), the bioavailability stood at 79.4%. In addition, the AUC(0-t) in data set [2] (Oral 10 mg/kg) amounted to 4860 ± 1670 ng·h/mL; in data set [2] (iv, injection 1 mg/kg) it was 612 ± 126 ng·h/mL. Besides, the half-life in data set [2] (Oral 10 mg/kg) is 145 ± 127 min; in data set [2] (iv, injection 1 mg/kg), 43.8 ± 19.2 min. Besides, in data set [2] (Oral 10 mg/kg, read-out: Plasma concentration Cmax), the Cmax amounted to 1150 ± 349 ng/mL.

The bioavailability is dose-corrected exposure relative to a reference, in per cent.
